Experimental data: patent US20190119348A1, “PARATHYROID HORMONE RECEPTOR 1 ANTAGONIST AND INVERSE AGONIST POLYPEPTIDES AND METHODS OF THEIR USE” (The General Hospital Corporation, priority 2016, published 2019)
Where a SMILES comes first, the peptide text is derived from it. [ ]: non-standard residue; d: D form. Nle = CCCC[C@H](N)C(=O)O

Assays:
PTHR1 = target: T1, PTHR1 (Homo sapiens, UniProt Q03431); test: Antagonism of PTH(1-34)-induced cAMP response (GloSensor) in GP-2.3 cells; format: cell-based
T1 construct: expressed in transfected cells; host or cells: GP-2.3 (HEK-293 stably transfected with hPTHR1 and GloSensor)
T1 sequence (Q03431 27-593): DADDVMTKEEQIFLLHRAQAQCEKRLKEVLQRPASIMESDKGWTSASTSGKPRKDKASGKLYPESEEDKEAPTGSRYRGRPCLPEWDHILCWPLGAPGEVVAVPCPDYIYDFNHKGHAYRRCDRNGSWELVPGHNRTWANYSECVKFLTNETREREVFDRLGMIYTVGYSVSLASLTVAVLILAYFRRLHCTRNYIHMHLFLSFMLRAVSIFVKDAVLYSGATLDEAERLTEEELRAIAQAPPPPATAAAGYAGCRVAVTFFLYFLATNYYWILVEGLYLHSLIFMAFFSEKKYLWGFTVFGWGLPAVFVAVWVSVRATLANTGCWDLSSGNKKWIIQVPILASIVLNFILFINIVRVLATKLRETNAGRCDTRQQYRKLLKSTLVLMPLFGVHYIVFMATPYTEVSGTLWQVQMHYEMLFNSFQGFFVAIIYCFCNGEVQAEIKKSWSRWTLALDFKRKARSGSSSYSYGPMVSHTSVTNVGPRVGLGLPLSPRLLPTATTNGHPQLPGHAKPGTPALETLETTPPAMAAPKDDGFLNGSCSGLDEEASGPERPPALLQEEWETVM
Procedure: cAMP signaling was assessed in the HEK293-derived or SaOS2-derived cell lines stably expressing the luciferase-based GloSensor™ cAMP reporter (Hattersley et al., Paper presented at: Novel Signaling Mechanisms and Bone Cell Biology 2014; Binkowski et al., Methods in molecular biology. 756:263-271). HEK-293 cells were further transfected to stably express the hPTHR1, hPTHR1-H223R, or hPTHR1-T410P. The cells were seeded into 96-well white plates and were assayed 24 to 48 hours post-confluency. Assays were performed at room temperature in CO2-independent culture media (Life Technologies, Corp., Carlsbad, Calif.) containing 0.1% BSA (CIDB). The cells were pre-loaded with luciferin (0.5 mM in CIDB) for 15 minutes, then PTH peptides were added at varying concentrations. cAMP-dependent luminescence was measured at two-minute intervals using a PerkinElmer Envision plate reader. The time at which maximum luminescence (cps) observed with agonist alone, typically at 10-20 minutes after agonist addition, was used to obtain data from wells containing antagonist with or without agonist, to thus generate antagonist ligand dose-response curves. The resulting cps values were then plotted against ligand concentration using GraphPad Prism 7.0 software and a four-parameter logistics curve fitting equation, which yielded parameters of inhibitory potency (pIC50).
Pharmacological properties of the ligands were assessed in cells expressing the PTHR1 and the GloSensor™ cAMP reporter. The assays used GP-2.3 cells, derived from HEK293 cells by stable transfection with the hPTHR1 and GloSensor™, as well as SGS-72 cells, which are derived from the human osteosarcoma cell line, Saos-2, in which is endogenously expressed the hPTHR1, by stable transfection with GloSensor™. Binding of representative polypeptides to the PTHR1 was assessed in GP-2.3 cells by radioligand competition methods (FIGS. 1A and 1B, Table 3).
[…] concentration of antagonist that inhibited the maximum response to PTH(1-34)-induced in the absence of antagonist (at ˜40 minutes) is reported in units of -log M (pIC50), and the corresponding nanomolar value is shown below each pIC50 value. Data are means of the number of experiments indicated (n). The PTH(1-34)-induced maximum luminescence was ˜80,000 cps and the basal was ˜1,000 cps. TMR indicates Lys13 modified at epsilon amino function with TMR, P vs. inhibition by dW12,Y34-bPTH(7-34).

endogenous hPTHR1 = target: T2, endogenous hPTHR1 (Homo sapiens, UniProt Q03431); test: Antagonism of PTH(1-34)- and PTHrP(1-36)-induced cAMP response (GloSensor) in SGS-72 cells; format: cell-based; settings: PTH(1-34) 0.3 nM
T2 construct: Saos-2, in which is endogenously expressed the hPTHR1; endogenous in cells
T2 sequence (Q03431 27-593): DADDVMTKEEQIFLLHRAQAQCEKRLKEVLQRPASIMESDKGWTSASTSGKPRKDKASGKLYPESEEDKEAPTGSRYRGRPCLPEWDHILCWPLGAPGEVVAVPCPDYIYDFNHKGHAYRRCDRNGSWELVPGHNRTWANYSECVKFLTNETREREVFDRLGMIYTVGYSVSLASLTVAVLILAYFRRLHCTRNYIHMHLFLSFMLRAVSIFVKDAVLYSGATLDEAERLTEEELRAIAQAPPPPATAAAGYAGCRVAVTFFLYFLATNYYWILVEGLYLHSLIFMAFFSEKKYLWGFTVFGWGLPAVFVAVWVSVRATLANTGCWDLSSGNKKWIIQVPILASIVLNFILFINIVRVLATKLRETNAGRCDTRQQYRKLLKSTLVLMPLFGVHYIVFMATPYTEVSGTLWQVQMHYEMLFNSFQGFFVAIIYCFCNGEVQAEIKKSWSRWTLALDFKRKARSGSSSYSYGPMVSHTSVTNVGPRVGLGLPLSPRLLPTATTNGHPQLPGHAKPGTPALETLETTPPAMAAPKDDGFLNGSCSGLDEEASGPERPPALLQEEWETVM
Procedure: cAMP signaling was assessed in the HEK293-derived or SaOS2-derived cell lines stably expressing the luciferase-based GloSensorTM cAMP reporter ([…] al., Paper presented at: Novel Signaling Mechanisms and Bone Cell Biology 2014; Binkowski et al., Methods in molecular biology. 756:263-271). HEK-293 cells were further transfected to stably express the hPTHR1, hPTHR1-H223R, or hPTHR1-T410P. The cells were seeded into 96-well white plates and were assayed 24 to 48 hours post-confluency. Assays were performed at room temperature in CO2-independent culture media (Life Technologies, Corp., Carlsbad, Calif.) containing 0.1% BSA (CIDB). The cells were pre-loaded with luciferin (0.5 mM in CIDB) for 15 minutes, then PTH peptides were added at varying concentrations. cAMP-dependent luminescence was measured at two-minute intervals using a PerkinElmer Envision plate reader. The time at which maximum luminescence (cps) observed with agonist alone, typically at 10-20 minutes after agonist addition, was used to obtain data from wells containing antagonist with or without agonist, to thus generate antagonist ligand dose-response curves. The resulting cps values were then plotted against ligand concentration using GraphPad Prism 7.0 software and a four-parameter logistics curve fitting equation, which yielded parameters of inhibitory potency (pIC50). Pharmacological properties of the ligands were assessed in cells expressing the PTHR1 and the GloSensorTM cAMP reporter. The assays used GP-2.3 cells, derived from HEK293 cells by stable transfection with the hPTHR1 and GloSensorTM, as well as SGS-72 cells, which are derived from the human osteosarcoma cell line, Saos-2, in which is endogenously expressed the hPTHR1, by stable transfection with GloSensorTM. Binding of representative polypeptides to the PTHR1 was assessed in GP-2.3 cells by radioligand competition methods (FIGS. 1A and 1B, Table 3). […] In Table 5, antagonist assays were performed in SGS-72 cells (SaOS2 cells with stable GloSensorTM cAMP reporter) at room temperature. […] The mean (±sem) concentration of antagonist that inhibited the maximum agonist-induced response observed in the absence of antagonist (at 40 minutes) is reported in units of -log M (pIC50), and the corresponding nanomolar value is shown below each pIC50 value. Data are means of the number of seven experiments. The PTH(1-34)-induced maximum luminescence was 500,000 cps and the basal was 5,000 cps. TMR indicates Lys13 modified at epsilon amino function with TMR. The data are illustrated in FIG. 7A. […] Date are means (±SEM) of the number of separate experiments indicated by n.

PTH(1-34)-induced maximum luminescence (PTHR1; basal ~1,000 cps)	PTH(1-34)-induced maximum luminescence (endogenous hPTHR1; basal ~5,000 cps)	IC50 (PTHR1; inhibition of PTH(1-34)-induced maximum response, read-out: corresponding nanomolar value of pIC50 (Table 4) (converted))	IC50 (endogenous hPTHR1; IC50 PTH(1-34) (Table 6, nanomolar value), antagonist pre-treatment 15 minutes)	SMILES
~80,000 cps	~500,000 cps			CC[C@H](C)[C@H](NC(=O)[C@H](CCC(=O)O)NC(=O)[C@H](CO)NC(=O)[C@@H](NC(=O)[C@@H](N)CO)C(C)C)C(=O)N[C@@H](CCC(N)=O)C(=O)N[C@@H](CC(C)C)C(=O)N[C@@H](CCSC)C(=O)N[C@@H](Cc1c[nH]cn1)C(=O)N[C@@H](CC(N)=O)C(=O)N[C@@H](CC(C)C)C(=O)NCC(=O)N[C@@H](CCCCN)C(=O)N[C@@H](Cc1c[nH]cn1)C(=O)N[C@@H](CC(C)C)C(=O)N[C@@H](CC(N)=O)C(=O)N[C@@H](CO)C(=O)N[C@@H](CCSC)C(=O)N[C@@H](CCC(=O)O)C(=O)N[C@@H](CCCNC(=N)N)C(=O)N[C@H](C(=O)N[C@@H](CCC(=O)O)C(=O)N[C@@H](Cc1c[nH]c2ccccc12)C(=O)N[C@@H](CC(C)C)C(=O)N[C@@H](CCCNC(=N)N)C(=O)N[C@@H](CCCCN)C(=O)N[C@@H](CCCCN)C(=O)N[C@@H](CC(C)C)C(=O)N[C@@H](CCC(N)=O)C(=O)N[C@@H](CC(=O)O)C(=O)N[C@H](C(=O)N[C@@H](Cc1c[nH]cn1)C(=O)N[C@@H](CC(N)=O)C(=O)N[C@@H](Cc1ccccc1)C(N)=O)C(C)C)C(C)C [compound 1923, PTH(1-34), reference compound]
		224 nM	4.39 nM	CCCC[C@H](NC(=O)[C@H](CC(C)C)NC(=O)[C@H](CCC(N)=O)NC(=O)[C@@H](N)[C@@H](C)CC)C(=O)N[C@@H](Cc1c[nH]cn1)C(=O)N[C@@H](CCC(N)=O)C(=O)N[C@@H](CCCNC(=N)N)C(=O)N[C@H](Cc1c[nH]c2ccccc12)C(=O)N[C@@H](CCCCN)C(=O)N[C@@H](Cc1c[nH]c2ccccc12)C(=O)N[C@H](C(=O)N[C@@H](CCC(N)=O)C(=O)N[C@@H](CC(=O)O)C(=O)N[C@@H](C)C(=O)N[C@@H](CCCNC(=N)N)C(=O)N[C@@H](CCCNC(=N)N)C(=O)N[C@@H](CCCNC(=N)N)C(=O)N[C@@H](C)C(=O)N[C@@H](Cc1c[nH]c2ccccc12)C(=O)N[C@@H](CC(C)C)C(=O)N[C@@H](Cc1c[nH]cn1)C(=O)N[C@@H](CCCCN)C(=O)N[C@@H](CC(C)C)C(=O)N[C@H](C(=O)N[C@@H](C)C(=O)N[C@@H](CCC(=O)O)C(=O)N[C@H](C(=O)N[C@@H](Cc1c[nH]cn1)C(=O)N[C@H](C(=O)N[C@@H](C)C(=O)N[C@@H](CCC(=O)O)C(=O)N[C@H](C(=O)N[C@@H](CS)C(N)=O)[C@@H](C)CC)[C@@H](C)O)[C@@H](C)CC)[C@@H](C)CC)[C@@H](C)CC [compound 1974, Nle8, dW12, W23, C37-LA-PTH(5-37)] (H-IQL[Nle]HQR[dW]KWIQDARRRAWLHKLIAEIHTAEIC-NH2; N-terminus assumed)
